According to patent publication US6875784B2, “Antimibicrobial [3.1.0.] bicyclic oxazolidinone derivatives” (priority 2002, dated 2005):
Values after ≈ are worked out from the molar mass of the structure shown. Like-named read-outs stand apart in the source and are kept apart here. One block for each compound: values may come before it.

Experiments:
Assay type in all cases: cell-based
S. aureus UC9213 = assay: MIC by agar dilution, S. aureus UC9213; conditions: Staphylococcus aureus
Description: (§1) The in vitro activity of compounds of the subject invention may be assessed by standard testing procedures such as the determination of minimum inhibitory concentration (MIC) by agar dilution as described in “Approved Standard. Methods for Dilution Antimicrobial Susceptibility Tests for Bacteria that Grow Aerobically,” 3rd ed., published 1993 by the National Committee for Clinical Laboratory standards, Villanova, Pa., USA.
(§2) The in vitro MICs of test compounds may be determined by a standard agar dilution method. A stock drug solution of each analog is prepared in a preferred solvent, usually DMSO:H2O (1:3). Serial 2-fold dilutions of each sample are made using 1.0 ml aliquots of sterile distilled water. To each 1.0 ml aliquot of drug is added 9 ml of molten Mueller Hinton agar medium. The drug-supplemented agar is mixed, poured into 15×100 mm petri dishes, and allowed to solidify and dry prior to inoculation.
(§3) Vials of each of the test organisms are maintained frozen in the vapor phase of a liquid nitrogen freezer. Test cultures are grown overnight at 35° C. on the medium appropriate for the organism. Colonies are harvested with a sterile swab, and cell suspensions are prepared in Trypticase Soy broth (TSB) to equal the turbidity of a 0.5 McFarland standard. A 1:20 dilution of each suspension is made in TSB. The plates containing the drug supplemented agar are inoculated with a 0.001 ml drop of the cell suspension using a Steers replicator, yielding approximately 10^4 to 10^5 cells per spot. The plates are incubated overnight at 35° C.
(§4) Following incubation the Minimum Inhibitory Concentration (MIC μg/ml), the lowest concentration of drug that inhibits visible growth of the organism, is read and recorded.
(§5) The in vitro MICs of test compounds were determined by a standard agar dilution method. A stock drug solution of each analog was prepared in the preferred solvent, usually DMSO:H2O (1:3). Serial 2-fold dilutions of each sample are made using 1.0 ml aliquots of sterile distilled water. To each 1.0 ml aliquot of drug was added 9 ml of molten Mueller Hinton agar medium The drug-supplemented agar was mixed, poured into 15×100 mm petri dishes, and allowed to soldify and dry prior to inoculation.
(§6) Vials of each of the test organisms are maintained frozen in the vapor phase of a liquid nitrogen freezer. Test cultures are grown overnight at 35° C. on the medium appropriate for the organism. Colonies are harvested with a sterile swab, and cell suspensions are prepared in Trypticase Soy broth (TSB) to equal the turbidity of a 0.5 McFarland standard. A 1:20 dilution of each suspension was made in TSB. The plates containing the drug supplemented agar are inoculated with a 0.001 ml drop of the cell suspension using a Steers replicator, yielding approximately 10^4 to 10^5 cells per spot. The plates are incubated overnight at 35° C. Following incubation the Minimum Inhibitory Concentration (MIC μg/ml), the lowest concentration of drug that inhibits visible growth of the organism, was read and recorded.

S. pneumoniae UC9912 = assay: MIC by agar dilution, S. pneumoniae UC9912; conditions: Streptococcus pneumoniae
Description: as §1, §2, §3, §4, §5, §6

H. influenzae 30063 = assay: MIC by agar dilution, H. influenzae 30063
Description: as §1, §2, §3, §4, §5, §6

[1] = UC9213, agar dilution, Mueller Hinton agar, overnight at 35° C., read-out: S. aureus UC9213 MIC
[2] = UC9912, agar dilution, Mueller Hinton agar, overnight at 35° C., read-out: S. pneumoniae UC9912 MIC
[3] = Haemophilus influenzae, 30063, agar dilution, Mueller Hinton agar, overnight at 35° C., read-out: H. influenzae 30063 MIC
[4] = Haemophilus influenzae, 30063, read-out: MIC against H. influenza (30063)

Compound: CCN(CC)C(=O)COC(=O)[C@H]1[C@@H]2CN(c3c(F)cc(N4C[C@H](CNC(=O)C(F)F)OC4=O)cc3F)C[C@@H]21 [Example 17]
MIC (H. influenzae 30063; [4]): > 64 µg/mL

Compound: CCN(CC)C(=O)COC(=O)[C@H]1[C@@H]2CN(c3c(F)cc(N4C[C@H](CNC(=O)C(Cl)Cl)OC4=O)cc3F)C[C@@H]21 [Example 13, 2-(diethylamino)-2-oxoethyl exo-(1R,5S)-3-[4-((5S)-5-{[(dichloroacetyl)amino]methyl}-2-oxo-1,3-oxazolidin-3-yl)-2,6-difluorophenyl]-3-azabicyclo[3.1.0]hexane-6-carboxylate]
MIC (H. influenzae 30063; [4]): > 64 µg/mL

Compound: CC(=O)NC[C@H]1CN(c2ccc(N3CC4NC4C3)c(F)c2)C(=O)O1 (stereo partly shown) [Example 49]
MIC (S. aureus UC9213; UC9213, read-out: S. aureus UC9213 MIC, μg/mL): 4 µg/mL (≈ 12 µM)
MIC (S. pneumoniae UC9912; UC9912, read-out: S. pneumoniae UC9912 MIC, μg/mL): 0.5 µg/mL (≈ 1.5 µM)
MIC (H. influenzae 30063; Haemophilus influenzae, 30063, read-out: H. influenzae 30063 MIC, μg/mL): 8 µg/mL (≈ 23.9 µM)

Compound: COC(=O)[C@H]1[C@@H]2CN(c3c(F)cc(N4C[C@H](CNC(=O)C(F)F)OC4=O)cc3F)C[C@@H]21 [Example 16, methyl exo-(1R,5S)-3-[4-((5S)-5-{[(difluoroacetyl)amino]methyl}-2-oxo-1,3-oxazolidin-3-yl)-2,6-difluorophenyl]-3-azabicyclo[3.1.0]hexane-6-carboxylate]
MIC (H. influenzae 30063; [4]): > 64 µg/mL

Compound: CC(=O)NC[C@H]1CN(c2cc(F)c(N3C[C@@H]4[C@H](C3)[C@H]4C(=O)N(C)C)c(F)c2)C(=O)O1 [Example 3]
MIC (H. influenzae 30063; [4]): > 64 µg/mL

Next, values leading:

MIC (S. aureus UC9213; [1]): 1 µg/mL (≈ 2.83 µM)
MIC (S. pneumoniae UC9912; [2]): 0.5 µg/mL (≈ 1.42 µM)
MIC (H. influenzae 30063; [3]): 8 µg/mL (≈ 22.6 µM)
Compound: CC(=O)NC[C@H]1CN(c2cc(F)c(N3CC4OC4C3)c(F)c2)C(=O)O1 (stereo partly shown) [Example 40]

MIC (S. pneumoniae UC9912; UC9912, read-out: MIC against S. pneumoniae (UC 9912)): 1 µg/mL (≈ 2.96 µM)
MIC (H. influenzae 30063; [4]): 16 µg/mL (≈ 47.4 µM)
Compound: CC(=O)NC[C@H]1CN(c2ccc(N3CCOCC3)c(F)c2)C(=O)O1 [linezolid, reference compound]

MIC (S. aureus UC9213; [1]): 1 µg/mL
MIC (S. pneumoniae UC9912; [2]): 1 µg/mL
MIC (H. influenzae 30063; [3]): 32 µg/mL
Compound: CC(=O)NC[C@H]1CN(c2ccc(N3CC4C(C3)N4C(=O)COC(C)=O)c(F)c2)C(=O)O1 (stereo partly drawn) [Example 52, 2-[3-(4-(5S)-5-[(acetylamino)methyl]-2-oxo-1,3-oxazolidin-3-yl}2-fluorophenyl)-3,6-diazabicyclo[3.1.0]hex-6-yl]-2-oxoethyl acetate]

MIC (H. influenzae 30063; [4]): > 64 µg/mL
Compound: CC(=O)NC[C@H]1CN(c2cc(F)c(N3C[C@@H]4[C@H](C3)[C@H]4NC(=O)Nc3ccccc3)c(F)c2)C(=O)O1 [Example 28, N-{[(5S)-3-(4-{exo-(1R,5S)-6-[(anilinocarbonyl)amino]-3-azabicyclo[3.1.0]hex-3-yl}-3,5-difluorophenyl)-2-oxo-1,3-oxazolidin-5-yl]methyl}acetamide]

MIC (S. aureus UC9213; [1]): 8 µg/mL (≈ 21.3 µM)
MIC (S. pneumoniae UC9912; [2]): 2 µg/mL (≈ 5.31 µM)
MIC (H. influenzae 30063; [3]): 64 µg/mL (≈ 170 µM)
Compound: CC(=O)NC[C@H]1CN(c2ccc(N3CC4C(C3)N4C(C)=O)c(F)c2)C(=O)O1 (stereo partly drawn) [Example 50, N-({(5S)-3-[4-(6-acetyl-3,6-diazabicyclo[3.1.0]hex-3-yl)-3-fluorophenyl]-2-oxo-1,3-oxazolidin-5-yl]methyl)acetamide]

MIC (S. aureus UC9213; [1]): 8 µg/mL (≈ 19.7 µM)
MIC (S. pneumoniae UC9912; [2]): 2 µg/mL (≈ 4.92 µM)
MIC (H. influenzae 30063; [3]): 32 µg/mL (≈ 78.7 µM)
Compound: COCC(=O)N1C2CN(c3ccc(N4C[C@H](CNC(C)=O)OC4=O)cc3F)CC21 (stereo partly drawn) [Example 51, N-({(5S)-3-[4-(6-methoxyacetyl-3,6-diazabicyclo[3.1.0]hex-3-yl)-3-fluorophenyl]-2-oxo-1,3-oxazolidin-5-yl}methyl)acetamide]

MIC (S. aureus UC9213; [1]): 2 µg/mL (≈ 5.44 µM)
MIC (S. pneumoniae UC9912; [2]): 0.5 µg/mL (≈ 1.36 µM)
MIC (H. influenzae 30063; [3]): 16 µg/mL (≈ 43.6 µM)
Compound: CCC(=O)NC[C@H]1CN(c2cc(F)c(N3CC4OC4C3)c(F)c2)C(=O)O1 (stereo partly drawn) [Example 41, N-({(5S)-3-[3,5-difluoro-4-(6-oxa-3-azabicyclo[3.1.0]hex-3-yl)phenyl]-2-oxo-1,3-oxazolidin-5-yl}methyl)propanamide]
